Source: article PMC5843628, “Phosphorylation of conserved phosphoinositide binding pocket regulates sorting nexin membrane targeting” (Nature Communications, 2018)

Target: full length human SNX3 (sorting nexin 3) (Homo sapiens, UniProt O60493)
Test: NMR chemical shift perturbation titration, […]-labelled protein
Type: binding

Sequence of full length human SNX3 (sorting nexin 3) (O60493 whole entry): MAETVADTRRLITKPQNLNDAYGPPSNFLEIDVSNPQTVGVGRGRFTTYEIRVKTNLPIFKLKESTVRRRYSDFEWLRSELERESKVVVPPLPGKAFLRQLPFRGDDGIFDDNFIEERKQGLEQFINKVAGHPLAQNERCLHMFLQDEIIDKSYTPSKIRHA

Compound	Kd [µM]
CCCC(=O)OC[C@H](COP(=O)(O)O[C@@H]1[C@H](O)[C@H](OP(=O)(O)O)[C@@H](O)[C@H](O)[C@H]1O)OC(=O)CCC [c4-PI3P]	159 ± 36.1
O=P(O)(O)O[C@@H]1[C@H](O)[C@H](OP(=O)(O)O)[C@@H](O)[C@H](O)[C@H]1O [Ins(1,3)P2]	170 ± 34.1
